Reference: patent US9289509B2, “Uses of immunoconjugates targeting CD138” (Biotest AG, priority 2009, dated 2016)

How the values were obtained:
[1] = cited from earlier work
[2] = tested on: MOLP-8 human multiple myeloma xenografts; test: MOLP-8 xenograft in CB.17 SCID mice, single bolus iv (Xenograft Mouse Experiments A, Part I); assay type: in vivo; details: nBT062 […], all others 250 μg/kg (maytansinoid)
Procedure: The conjugates were evaluated in a CD138-positive xenograft model (MOLP-8) of human multiple myeloma in severe combined immunodeficient (SCID) mice.
In these mice, subcutaneous tumors were established (female CB.17 SCID mice) by inoculation with MOLP-8 cell suspensions. Treatment with a single bolus intravenous injection was conducted when tumor volumes reached an average 113 mm^3. Changes in tumor volume and body weight were monitored twice per week.
Each mouse was inoculated with 1×10^7 MOLP-8 cells subcutaneously into the area under the right shoulder. The total volume was 0.2 ml per mouse, in which the ratio of serum-free medium to matrigel (BD Bioscience, Bedford, Mass.) was 1/1 (v/v). Prior to treatment, the xenograft tumors were monitored daily and were allowed to become established.
Eleven days after tumor cell inoculation, 42 mice were selected based on tumor volumes and body weights. […] The forty-two mice were randomly divided into seven groups (A-G) of six animals each based on tumor volume.
Each of six mice in Group A received 200 μl of PBS as vehicle control.
All agents were intravenously administered as a single bolus injection through a lateral tail vein with a 1 ml syringe fitted with a 27 gauge, ½ inch needle.

[3] = tested on: RPMI 8226; test: Combination with BT062 in cell lines (Chou and Talalay median effect analysis); assay type: cell-based; details: RPMI 8226 cells
Procedure: Combination studies in xenograph mouse models were preceded by studies in cell lines. […] Here, IC50 values for the cytotoxic effects for each drug and each cell line are calculated, and then IC50 ratios for each drug pair. The cells were then exposed to dilution series of either these drug mixtures, or the drugs alone. Experimental data were analyzed using the CompuSyn software (ComboSyn, Inc., Paramus, N.J.). Combination Indexes (CI) for each independent experiment were calculated and reported separately. In the analysis, CI less than 1, equal to 1 and more than 1 indicates synergy, additivity and antagonism, respectively. According to the classification of T. C.

[4] = tested on: MOLP8; test: as above; assay type: cell-based, human; details: MOLP8 cells
[5] = tested on: MOLP8 multiple myeloma cells; test: MOLP8 xenograft: BT062 and VELCADE combination therapy; assay type: in vivo, mouse; details: for Fractional tumor volume (FTV): Velcade alone, dosed days 1, 4, 8 and 11
[6] = tested on: MOLP-8 tumor xenografts; details: 450 μg/kg dose; mean time to reach 160 mm^3 minus control
[7] = tested on: CD56-positive multiple myeloma; details: 1 patient each at 60, 90 and 112 mg/m^2/week; heavily pretreated; cited from earlier work
[8] = Velcade 1 mg/kg days 1, 4, 8, 11

## COc1cc2cc(c1Cl)N(C)C(=O)C[C@H](OC(=O)[C@H](C)N(C)C(=O)CCS)[C@]1(C)O[C@H]1[C@H](C)[C@@H]1C[C@@](O)(NC(=O)O1)[C@H](OC)/C=C/C=C(\C)C2 [DM1, N^2-deacetyl-N^2-(3-mercapto-1-oxopropyl)-maytansine]
[1]; more cytotoxic than maytansine
  cytotoxicity relative to maytansine: 3- to 10 fold

## COc1cc2cc(c1Cl)N(C)C(=O)C[C@H](OC(=O)[C@H](C)N(C)C(=O)CCC(C)(C)S)[C@]1(C)O[C@H]1[C@H](C)[C@@H]1C[C@@](O)(NC(=O)O1)[C@H](OC)/C=C/C=C(\C)C2 [DM4, N^2′-deacetyl-N^2′-(4-methyl-4-mercapto-1-oxopentyl)-maytansine, reference compound]
[2]
  effect on tumor growth: did not cause any significant inhibition of tumor growth

## Nc1cccc2c1CN(C1CCC(=O)NC1=O)C2=O (centres unmarked) [Lenalidomide]
[3]
  estimate of synergy, drug combined with BT062: Synergistic

## O=C1CCC(N2C(=O)c3ccccc3C2=O)C(=O)N1 (stereo not drawn) [Thalidomide, α-(N-phthalimido) glutarimide]
[4]
  estimate of synergy, drug combined with BT062: antagonistic effect

## CC(C)C[C@H](NC(=O)[C@H](Cc1ccccc1)NC(=O)c1cnccn1)B(O)O [Velcade, reference compound]
[5]; VELCADE treatment alone (FIG. 29)
  effect on tumor volume: no effect on the tumor volume
[5]; [8]
  (T-C): 0.5 days
  Regressions Complete: 0/6
  Regressions Partial: 0/6
  Result: Inactive
  T/C (%): 100%
  Tumor free survivors day 67: 0/6
  log cell kill: 0.0
[5]; day 14
  Fractional tumor volume (FTV): 0.84
[5]; day 18
  Fractional tumor volume (FTV): 0.96
[5]; day 21
  Fractional tumor volume (FTV): 0.80
[5]; day 25
  Fractional tumor volume (FTV): 0.95
[5]; day 25, all BT062 dose regimens
  combination effect with BT062 in xenograft model: synergistic
[4]; listed as Bortezomib
  estimate of synergy, drug combined with BT062: Slightly antagonistic
[4]; listed as bortezomib
  estimate of synergy, drug combined with BT062: antagonistic effect

## COc1cc2cc(c1Cl)N(C)C(=O)C[C@H](OC(=O)[C@H](C)N(C)C(C)=O)[C@]1(C)O[C@H]1[C@H](C)[C@@H]1C[C@@](O)(NC(=O)O1)[C@H](OC)/C=C/C=C(\C)C2 [maytansine]
[1]; higher than anti-cancer drugs in clinical use that affect tubulin polymerization
  cytotoxicity relative to Vinca alkaloids or taxol: 200-1000 fold

## B-B4-SPP-DM1 [reference compound]
[2]
  effect on tumor growth: marked delay in tumor growth

## nBT062-DM1
[6]
  TGD (tumor growth delay): 18 days

B1: IMGN901 (conjugate, chains of the INN, looked up)
VH: QVQLVESGGGVVQPGRSLRLSCAASGFTFSSFGMHWVRQAPGKGLEWVAYISSGSFTIYYADSVKGRFTISRDNSKNTLYLQMNSLRAEDTAVYYCARMRKGYAMDYWGQGTLVTVSS
VL: DVVMTQSPLSLPVTLGQPASISCRSSQIIIHSDGNTYLEWFQQRPGQSPRRLIYKVSNRFSGVPDRFSGSGSGTDFTLKISRVEAEDVGVYYCFQGSHVPHTFGQGTKVEIK
modifications: mertansine (DM1) conjugate
[7]
  patients with confirmed minor response (MR): 3 patients
